What all share (experiment): growth of human tumour cells (NCI), 48 h
In assay [1] the test system is A549 NSCLC.
The test system of assay [2] is HL-60(TB) leukemia.
Assay [3] deals with HS 578T breast.
The subject of assay [4] is LOX IMVI melanoma.
In assay [5] the test system is MDA-MB-231 breast.
For assay [6], the system named is MOLT-4 leukemia.
Assay [7] has as its system NCI-H226 lung.
Assay [8] deals with NCI-H522 lung.
The subject of assay [9] is OVCAR-4 ovarian.
For assay [10], the system named is PC-3 prostate.
Assay [11] deals with RPMI-8226 leukemia.
The test system of assay [12] is RXF 393 renal.
Assay [13] concerns SF-295 CNS.
The subject of assay [14] is SK-MEL-2 melanoma.
Assay [15] relates to SK-OV-3 ovarian.
For assay [16], the system named is SW-620 colon.
Assay [17] has as its system UACC-257 melanoma.
Assay [18] relates to UACC-62 melanoma.
In assay [19] the test system is SR leukemia.

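Where inhibition never reached the appropriate level, the endpoint shown equals the highest concentration tested. Otherwise, values were interpolated linearly from a five-concentration, 48-hour dose response in 96-well plates. TGI: concentration producing complete growth inhibition.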

On to `CCOC(=O)/C(C[C@H]1OC(C)(C)O[C@@H]1[C@H]1COC(C)(C)O1)=N/O`, for which the TGI in [1], in assay [2], in assay [3], in assay [4], in assay [5] and in assay [6] was above 100 µM each time. Besides, the TGI in [7], in assay [8], in [9], in assay [10], in assay [11] and in [12] was above 100 µM throughout. Moreover, the TGI in assay [13], in assay [14], in assay [15], in [16], in assay [17] and in assay [18] was above 100 µM each time.

As to `C/C(=N\Nc1nc2ccccc2o1)c1cc(C)ncn1`, the TGI was above 39 µM in assay [1]; above 100 µM in assay [2]; 75 µM in [5]; 3.09 µM in assay [6]; 27.5 µM in assay [9]; above 100 µM in [10]. The TGI is above 100 µM in assay [11]; 32.1 µM in assay [12]; 32.7 µM in assay [14]; 2.5 µM in [15]; above 100 µM in assay [19]; above 100 µM in [16].

On to `O=C1/C(=C/c2ccccc2)CCc2ccccc21`, for which the TGI in [1] was found to be 57.4 µM; in [2] it was 37.8 µM; in assay [3] it was 72.4 µM; in assay [4], 33 µM; in [5], 87.7 µM; in assay [6], 40.8 µM. Further, the TGI was determined as 35 µM in assay [7]; 28 µM in assay [9]; 38.6 µM in assay [10]; 9.42 µM in assay [11]; 29.7 µM in assay [12]; 34 µM in assay [13]. Also, the TGI is 67.5 µM in [15]; 38.9 µM in assay [19]; 34.2 µM in [16]; 31.4 µM in assay [17]; 36.7 µM in assay [18].

With `NC(=S)N/N=c1\cc(C(=O)Nc2ccc([N+](=O)[O-])cc2[N+](=O)[O-])oc2ccccc12`, the TGI in assay [1], in [2], in assay [3], in assay [4], in assay [5] and in assay [6] was above 100 µM each time. For the same compound, the TGI in assay [7], in assay [8], in assay [9], in assay [10], in assay [12] and in assay [13] was above 100 µM in each case. The TGI in [14], in [15], in [16], in assay [17] and in [18] was above 100 µM in each case.

Consider `COC(=O)c1nc(-c2nc(CCNC(=O)OC(C)(C)C)sc2Cl)sc1Cl`, for which the TGI in assay [1], in [2], in [3], in assay [6], in [7] and in assay [10] was above 100 µM throughout. The TGI in [11], in assay [12], in assay [13], in assay [15], in assay [19] and in assay [16] was above 100 µM each time. The TGI in assay [17] and in assay [18] was above 100 µM each time.

Regarding `CC1CN=C(NS(=O)(=O)c2cc(C(=O)Nc3ccc(F)cc3)c(Cl)cc2S)NN1` (stereo unspecified), the TGI in assay [1], in [2], in [4], in [5], in [6] and in assay [7] was above 100 µM throughout. Moreover, the TGI in assay [8] was 94.2 µM; in assay [9] it was above 100 µM; in assay [10] it was above 100 µM; in assay [11], above 100 µM; in assay [13] it was above 100 µM; in [14] it was 76.7 µM. Also, the TGI in [15], in [19], in [16], in assay [17] and in [18] was above 100 µM each time.

Take `CCCC(=O)Oc1ccc2c(C)cc(=O)oc2c1OC(=O)CCC`: the TGI in assay [1], in [3], in assay [4], in assay [5], in [6] and in assay [7] was above 100 µM in each case. The TGI in [9], in [10], in assay [11], in assay [13], in assay [14] and in [15] was above 100 µM each time. The TGI in assay [19], in assay [16], in assay [17] and in assay [18] was above 100 µM throughout.

For the origin of these results see PubChem BioAssay (NCI).
